# Experimental data published in ChEMBL document CHEMBL5338776, “Design and Characterization of Squaramic Acid-Based Prostate-Specific Membrane Antigen Inhibitors for Prostate Cancer” (J Med Chem, 2023).
# Columns and labels:
# [1] = molecular target: T1, Glutamate carboxypeptidase 2 (Homo sapiens, UniProt Q04609); assay: Binding affinity to human recombinant PSMA (unknown origin) assessed as inhibition constant incubated for 60 mins in presence of NAAG
# [2] = Drug uptake in 22Rv1 tumor bearing mouse assessed as fluorescence in tumor measured at 0.85 mg/kg, iv after 24 hrs by NIR-II imaging analysis; assay type: ADME, organism-based, Neoplasm; details: in vivo
# [3] = Drug uptake in 22Rv1 tumor bearing mouse assessed as fluorescence in lung measured at 0.85 mg/kg, iv after 24 hrs by NIR-II imaging analysis; assay type: ADME, organism-based; details: in vivo
# [4] = Drug uptake in 22Rv1 tumor bearing mouse assessed as fluorescence in pancreas measured at 0.85 mg/kg, iv after 24 hrs by NIR-II imaging analysis; assay type: ADME, organism-based; details: in vivo
# [5] = Drug uptake in 22Rv1 tumor bearing mouse measured at 0.85 mg/kg, iv after 24 hrs in presence of (2S)-2-[[(1S)-1-Carboxy-5-[(4-iodobenzoyl)amino]pentyl]carbamoylamino]pentanedioic acid by NIR-II imaging analysis; assay type: ADME, organism-based, Neoplasm; details: in vivo
# [6] = Drug uptake in 22Rv1 tumor bearing mouse assessed as fluorescence in muscle measured at 0.85 mg/kg, iv after 24 hrs by NIR-II imaging analysis; assay type: ADME, organism-based, Muscle tissue; details: in vivo
# [7] = Drug uptake in 22Rv1 tumor bearing mouse assessed as fluorescence in spleen measured at 0.85 mg/kg, iv after 24 hrs by NIR-II imaging analysis; assay type: ADME, organism-based; details: in vivo
# [8] = Drug uptake in 22Rv1 tumor bearing mouse assessed as fluorescence in brain measured at 0.85 mg/kg, iv after 24 hrs by NIR-II imaging analysis; assay type: ADME, organism-based; details: in vivo
# [9] = Drug uptake in 22Rv1 tumor bearing mouse assessed as fluorescence in intestine measured at 0.85 mg/kg, iv after 24 hrs by NIR-II imaging analysis; assay type: ADME, organism-based; details: in vivo
# [10] = Drug uptake in 22Rv1 tumor bearing mouse assessed as fluorescence in kidney measured at 0.85 mg/kg, iv after 24 hrs by NIR-II imaging analysis; assay type: ADME, organism-based; details: in vivo
# [11] = Drug uptake in 22Rv1 tumor bearing mouse assessed as fluorescence in heart measured at 0.85 mg/kg, iv after 24 hrs by NIR-II imaging analysis; assay type: ADME, organism-based; details: in vivo
# [12] = Drug uptake in 22Rv1 tumor bearing mouse assessed as tumor to normal tissue ratio measured at 0.85 mg/kg, iv after 24 hrs by NIR-II imaging analysis; assay type: ADME, organism-based; details: in vivo
# [13] = Drug uptake in 22Rv1 tumor bearing mouse assessed as fluorescence in liver measured at 0.85 mg/kg, iv after 24 hrs by NIR-II imaging analysis; assay type: ADME, organism-based; details: in vivo
# [14] = Drug uptake in 22Rv1 tumor bearing mouse assessed as tumor to liver ratio measured at 0.85 mg/kg, iv after 24 hrs by NIR-II imaging analysis; assay type: ADME, organism-based; details: in vivo
# [15] = Drug uptake in 22Rv1 tumor bearing mouse assessed as fluorescence in stomach measured at 0.85 mg/kg, iv after 24 hrs by NIR-II imaging analysis; assay type: ADME, organism-based; details: in vivo
# [16] = molecular target: T1, Glutamate carboxypeptidase 2; assay: Binding affinity to PSMA (unknown origin) assessed as inhibition constant
# T1 sequence (Q04609 whole entry): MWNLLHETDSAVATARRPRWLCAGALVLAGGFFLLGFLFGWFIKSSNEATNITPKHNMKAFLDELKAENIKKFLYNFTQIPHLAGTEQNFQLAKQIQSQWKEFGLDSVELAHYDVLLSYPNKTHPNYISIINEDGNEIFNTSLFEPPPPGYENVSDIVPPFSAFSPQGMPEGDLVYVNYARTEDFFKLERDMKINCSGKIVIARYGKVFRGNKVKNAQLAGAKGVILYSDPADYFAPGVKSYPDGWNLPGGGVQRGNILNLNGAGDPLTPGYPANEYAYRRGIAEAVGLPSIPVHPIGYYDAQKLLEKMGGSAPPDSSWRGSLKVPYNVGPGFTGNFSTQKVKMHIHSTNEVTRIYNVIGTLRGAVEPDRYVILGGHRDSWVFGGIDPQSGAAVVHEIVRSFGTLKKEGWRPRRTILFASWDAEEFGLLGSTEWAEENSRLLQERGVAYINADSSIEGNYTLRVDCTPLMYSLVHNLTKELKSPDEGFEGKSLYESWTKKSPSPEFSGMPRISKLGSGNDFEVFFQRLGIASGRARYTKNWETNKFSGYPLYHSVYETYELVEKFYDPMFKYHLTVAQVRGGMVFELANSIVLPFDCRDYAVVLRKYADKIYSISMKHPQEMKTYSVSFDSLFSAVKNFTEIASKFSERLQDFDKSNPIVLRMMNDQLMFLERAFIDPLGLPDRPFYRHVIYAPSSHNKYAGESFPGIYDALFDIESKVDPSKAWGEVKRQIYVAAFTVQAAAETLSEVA
compound,measurement,setting,value
O=C(N[C@@H](CCCCNC(=O)c1ccc(F)cc1)C(=O)O)N[C@@H](CNc1c(O)c(=O)c1=O)C(=O)O,Ki,[1],900 pM
CN(CCC(=O)NCCCC[C@H](NC(=O)N[C@@H](CNc1c(O)c(=O)c1=O)C(=O)O)C(=O)O)c1ccc(-c2c3c(c(-c4ccc(N(C)CCC(=O)NCCC[C@H](NC(=O)N[C@@H](CNc5c(O)c(=O)c5=O)C(=O)O)C(=O)O)cc4)c4nsnc24)N=S=N3)cc1,Drug uptake,[2],Active
same,Drug uptake,[3],Not Active
same,Ki,[1],1070 pM
same,Drug uptake,[4],Not Active
same,Drug uptake,[5],Not Active
same,Drug uptake,[6],Not Active
same,Drug uptake,[7],Not Active
same,Drug uptake,[8],Not Active
same,Drug uptake,[9],Not Active
same,Drug uptake,[10],Active
same,Drug uptake,[11],Not Active
same,Ratio,[12],4.79
same,Drug uptake,[13],Active
same,Ratio,[14],5.39
same,Drug uptake,[15],Not Active
CN(CCC(=O)NCCCC[C@H](NC(=O)N[C@@H](CCC(=O)O)C(=O)O)C(=O)O)c1ccc(-c2c3c(c(-c4ccc(N(C)CCC(=O)NCCCC[C@H](NC(=O)N[C@@H](CCC(=O)O)C(=O)O)C(=O)O)cc4)c4nsnc24)N=S=N3)cc1,Ratio,[12],6.66
O=C(N[C@@H](CCCCNC(=O)c1cc(F)cc(C(=O)NCCCC[C@H](NC(=O)N[C@@H](CNc2c(O)c(=O)c2=O)C(=O)O)C(=O)O)c1)C(=O)O)N[C@@H](CNc1c(O)c(=O)c1=O)C(=O)O,Ki,[1],410 pM
O=C(O)CC[C@H](NC(=O)N[C@@H](CCCNC(=O)c1ccc(F)cc1)C(=O)O)C(=O)O,Ki,[1],860 pM
CC1(C)C(/C=C2/C(=O)C(/C=C3\N(CCCCCC(=O)NCCCC[C@H](NC(=O)N[C@@H](CCC(=O)O)C(=O)O)C(=O)O)c4ccccc4C3(C)C)=C2[O-])=[N+](CCCCCC(=O)NCCCC[C@H](NC(=O)N[C@@H](CCC(=O)O)C(=O)O)C(=O)O)c2ccccc21,Ki,[16],740 pM
O=C(O)CC(=O)NC[C@H](NC(=O)N[C@@H](CCCCNC(=O)c1ccc(I)cc1)C(=O)O)C(=O)O,Ki,[1],221000 pM
O=C(O)CC(=O)NC[C@H](NC(=O)N[C@@H](CCCCNC(=O)c1cc(I)cc(C(=O)NCCCC[C@H](NC(=O)N[C@@H](CNC(=O)CC(=O)O)C(=O)O)C(=O)O)c1)C(=O)O)C(=O)O,Ki,[1],33800 pM
O=C(O)CC[C@H](Nc1c(N[C@@H](CCCCNC(=O)c2cc(I)cc(C(=O)NCCCC[C@H](Nc3c(N[C@@H](CCC(=O)O)C(=O)O)c(=O)c3=O)C(=O)O)c2)C(=O)O)c(=O)c1=O)C(=O)O,Ki,[1],107000 pM
O=C(N[C@@H](CCCCNC(=O)c1cc(I)cc(C(=O)NCCCC[C@H](NC(=O)N[C@@H](CNc2c(O)c(=O)c2=O)C(=O)O)C(=O)O)c1)C(=O)O)N[C@@H](CNc1c(O)c(=O)c1=O)C(=O)O,Ki,[1],400 pM
O=C(NC(CCCCNC(=O)c1ccc(I)cc1)C(=O)O)N[C@@H](CNc1c(O)c(=O)c1=O)C(=O)O (stereo not given in full),Ki,[1],1350 pM
